Tests used:
LCA1 (YOR175c) = molecular target: T1, LCA1 (YOR175c) (Saccharomyces cerevisiae, UniProt Q08548); test: In vitro assay of LPCAT activity: substrate specificity and kinetics of LCA1 (YOR175c); format: biochemical; conditions: for Rate of acylation as % of the activity registered for LPC: [^14C] palmitoyl-CoA as acyl donor, 50 μM lysophospholipid, microsomes of lca1Δ expressing YOR175c
T1 construct: Saccharomyces cerevisiae YOR175c ORF was PCR-amplified; made in house; host or cells: S. cerevisiae YOR175c deletion strain Y02431 (lca1Δ), pYES2.1, galactose induction; microsomal fraction
T1 sequence (Q08548 1-619): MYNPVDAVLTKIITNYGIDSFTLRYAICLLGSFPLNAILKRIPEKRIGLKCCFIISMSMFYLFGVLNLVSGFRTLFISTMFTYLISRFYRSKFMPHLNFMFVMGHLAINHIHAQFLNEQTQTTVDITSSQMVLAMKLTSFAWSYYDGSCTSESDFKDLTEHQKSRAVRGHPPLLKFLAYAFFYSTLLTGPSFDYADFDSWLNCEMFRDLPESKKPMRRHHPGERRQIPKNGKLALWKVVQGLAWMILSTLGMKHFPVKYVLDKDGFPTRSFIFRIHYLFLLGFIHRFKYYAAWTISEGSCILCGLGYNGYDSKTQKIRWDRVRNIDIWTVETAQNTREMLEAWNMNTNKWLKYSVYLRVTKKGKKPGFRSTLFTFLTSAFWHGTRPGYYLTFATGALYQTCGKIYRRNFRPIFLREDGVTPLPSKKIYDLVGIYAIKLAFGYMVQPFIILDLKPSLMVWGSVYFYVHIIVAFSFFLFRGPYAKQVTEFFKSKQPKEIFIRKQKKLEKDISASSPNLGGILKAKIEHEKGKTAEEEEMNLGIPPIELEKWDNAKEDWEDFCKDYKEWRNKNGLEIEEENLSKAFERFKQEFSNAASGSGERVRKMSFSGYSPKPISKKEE
Experimental: FIG. 11 is a graph showing the substrate specificity of LCA1. The assays were performed with 3 μg microsomal protein from lca1Δ harboring an empty vector (V0) and lca1Δ expressing LCA1. The reaction contained 112.5 μm [^14C] palmitoyl-CoA (5.5 nCi/nmol) and 50 μM lysophospholipid substrate (LPA, LPC, LPE, LPG, LPI, and LPS). Reaction was allowed for two minutes with 100 rpm shaking. The results are presented as a mean of three assays.
(§1) Microsomal preparation: Yeast strains were first grown in 15 ml of SC-Leu-His-Ura medium containing 2% glucose. Protein expression induction was carried out as described in Invitrogen manufacturer manual for yeast expression vector pYES2.1. After 24 hours of growth in SC+2% galactose+1% raffinose induction conditions, the cells were washed, first with distilled water and then with wall-breaking buffer (50 mM Tris-HCl, 1 mM EDTA, 0.6 M sorbitol, pH 7.4, 1 mM DTT). After centrifugation at 4,000 rpm (Eppendorf Centrifuge 5145C), the cells were resuspended in 1 ml wall-breaking buffer with 10 μl yeast protease cocktail (Sigma), and shaken vigorously in the presence of acid-washed glass beads (diameter 0.5 mm). The resultant homogenate was centrifuged at 12,000 rpm for ten minutes at 4° C. The decanted supernatant was further centrifuged at 100,000×g for 90-120 minutes at 4° C. The supernatant was discarded, and the pellet was suspended in homogenization buffer containing 20% glycerol and frozen at −80° C. until use. Protein concentration was measured using Bio-Rad Protein Assay Kit for final enzyme activity calculation.
(§2) In Vitro Assay of LPCAT activity: LPCAT substrate specificity was determined by measuring incorporation of [^14C] lysophosphatidylcholine or [^14C] palmitoyl-CoA into phosphatidylcholine. All assays were performed at least twice. For lysophospholipid substrate specificity assessment, 400 μl HEPES buffer contained 3 μg microsomal protein, 50 μM of lysophospholipid substrates and 112.5 μM [^14C] palmitoyl-CoA (5.5 nCi/nmol). For acyl-CoA substrate selectivity analysis, 400 μl HEPES reaction buffer (pH7.4, 0.1 M) contained 3 μg microsomal protein, 50 μM acyl-CoA and 112.5 μM [^14C] […] (1.35 nCi/nmol). Reaction was allowed for 2 minutes at 30° C. with 100 rpm shaking. The reaction products were extracted with chloroform/methanol (2/1, v/v) and separated with Merck silica G60 TLC plates. Spots corresponding to different phospholipid species products were scraped off and ^14C incorporation were scintillation counted. Different concentrations of ZnCl2 were added in to reactions for Zn^2+ inhibitory effect assay.

LCA1 = molecular target: T2, LCA1 (Saccharomyces cerevisiae, UniProt Q08548); test: Zn^2+ / Mg^2+ effect on LPCAT activity of LCA1 (in vitro assay, microsomes of lca1Δ over-expressing LCA1); format: biochemical; conditions: concentration ranging from 5 to 40 μM (data not shown)
T2 construct: Saccharomyces cerevisiae YOR175c ORF was PCR-amplified; made in house; host or cells: S. cerevisiae YOR175c deletion strain Y02431 (lca1Δ), pYES2.1, galactose induction; microsomal fraction
T2 sequence (Q08548 1-619): T1 sequence (Q08548 1-619)
Experimental: as §1, §2
Results are expressed as means±S.D. The lca1Δ over-expressing LCA1 was used to assess Zn^2+ effect. The reactions contained 5.6 μM palmitoyl-LPC (1.35 nCi/nmol), 1.5 μg microsomal proteins, 0.1 M HEPES (pH 7.4), 11.25 μM stearyl-CoA and indicated concentration of ZnCl2. The reaction was stopped after two minutes by adding 2 ml of chloroform/methanol solution (2:1).

[1] = test system: lca1Δ yeast mutant (Y02431); format: cell-based, Saccharomyces cerevisiae
Experimental: (§3) Cells were frown first in SC-URA+2% glucose media overnight then in protein expression induction media for six hours. Cultures were diluted to OD600 value of OD600 0.5, 1, 2, 3, respectively, from which 5 μl were inoculated (from left to right) onto YPD plate containing lyso-PAF or lyso-PC. The plates were incubated at 28° C. for 36 hours.
(§4) Lyso-PAF sensitivity: Yeast strains Y02431 over-expressing LCA1 or harboring empty vector were first grown in 15 ml of SC-ura medium containing 2% glucose then transferred to SC-ura+2% galactose and 1% raffinose. After 12 hours LCA1 expression induction, the culture was diluted to correspond to OD600 value of 0.5, 1, 2, 3, 4. Five μl of each dilution was spotted to a YPD plate supplemented with varying concentrations of Lyso-PAF. The plates were incubated at 28° C. for two days.
Lyso-PAF sensitivity: Yeast strains BY02431 carrying pYES 2.1-AtLPCATs or the empty vector were first grown in 15 ml of SC-Leu-His-ura medium containing 2% glucose. Yeast transformant strains of AtLPCATs were first grown in YPD overnight. Protein expression induction were carried out by protocol described in Invitrogen manufacturer manual for yeast expression vector pYES2.1. After 12 hours induction, 5 μl cultures were inoculated onto YPD plate with 10 μg/ml lysoPAF. The plates were incubated at 28° C. for two days. The final lysoPAF is 10/ml.

[2] = test system: parental (WT) yeast strain; test: Lyso-PAF and lyso-PC sensitivity plate test, parental strain; format: cell-based, Saccharomyces cerevisiae; conditions: plate assay
Experimental: as §3, §4

Question: Which “Concentration above which inhibitory effects on LPCAT activity are exerted” value (LCA1 (YOR175c); data not shown) does the source give for `CCCCCCCCCCCCCCCC(=O)OC[C@@H](O)COP(=O)([O-])OCC[N+](C)(C)C` [LPC (16:0), palmitic (16:0)-LPC] here?
Answer: above 75 μM

Question: `[Mg+2]` [Mg^2+] was tested. Which “Effect on LPCAT activity of LCA1” value (LCA1) did it give?
Answer: did not detect significant effect

Question: How did the “Rate of acylation as % of the activity registered for LPC” value (LCA1 (YOR175c)) turn out when lysophosphatidylethanolamine [LPE] was run?
Answer: ~20%

Question: What does the source list for “1-O-alkyl-sn-glycero-3-phosphocholine [lyso-PAF]”?
Answer: Growth of lpcat yeast mutant ([1]; 10 ug/ml on YPD plate): incapable of growth; Concentration above which hypersensitivity is displayed ([1]; lca1Δ mutant, plate assay): above 5 μg/ml

Question: With lysophosphatidylglycerol [LPG] as the molecule, how does the “Rate of acylation as % of the activity registered for LPC” value (LCA1 (YOR175c)) read?
Answer: approximately 60%

Question: For lysophosphatidylcholine [LPC], which “Acyltransferase activity among lysophospholipid substrates” value (LCA1 (YOR175c); [^14C] palmitoyl-CoA, LPA, LPC, LPE, LPG, LPI, LPS compared) is on record?
Answer: highest activity

Question: What about the Level tolerated ([1]; lca1Δ, plate assay) of the same molecule?
Answer: up to 20 μg/ml

Question: What about the Level tolerated [2] of the same molecule?
Answer: up to 20 μg/ml

B1: LCA1: yeast (S. cerevisiae) LPC acyltransferase encoded by YOR175c, SEQ ID NO:2 (protein, listed as Saccharomyces cerevisiae)
chain: T1 sequence (Q08548 1-619)
Question: Which Vmax (LCA1 (YOR175c); Lineweaver-Burk double-reciprocal plot) does the source give for B1 here?
Answer: 524 pmol/min/μg protein

Question: What about the Km (LCA1 (YOR175c); Lineweaver-Burk double-reciprocal plot, read-out: apparent Km for acyl-CoA) of the same molecule?
Answer: 0.89 ± 0.25 µM

Question: And the “Increase in lyso-PAF acyltransferase activity on over-expression” value (LCA1 (YOR175c); lyso-PAF as acyl acceptor)?
Answer: 86.3 fold

Reference: patent US9228175B2, “Genes encoding a novel type of lysophophatidylcholine acyltransferases and their use to increase triacylglycerol production and/or modify fatty acid composition” (National Research Counsel of Canada, priority 2006, dated 2016)
